Laboratory results reported in patent US5017618A, “Labile derivatives of ketone analogs of 3-substituted-1-alkylamino-2-propanols and their use as beta-adrenergic blockers” (priority 1989, dated 1991).
Structures can show the parent of a compound that is named as a salt.

Legend:
[1] = system: Intraocular Pressure (IOP) of Rabbits; experiment: Effect on the Intraocular Pressure (IOP) of Rabbits; assay type: in vivo, rabbit (male New Zealand albino)
Procedure: The animals were kept in individual cages with free access to food and water. Intraocular pressure was measured using a Digilab model 30R pneumatonometer. The pneumatonometer readings were checked at least twice a day using the Digilab calibration verifier. All measurements were obtained from unrestrained, unanesthetized rabbits. One drop of 0.5% propacaine (Ophthetic-Allergen Pharmaceuticals, Inc.) diluted 1:2 with saline was instilled in each eye immediately prior to IOP measurement. Drugs were administered as 1 or 2.5% solution in buffer pH 7.4 or in saline in both eyes of a group of at least four rabbits. Another group of at least three rabbits served as control and was administered the carrier only. […] Values are given as means ± standard error (S.E.) of the mean. The significance of the change was determined using the student's t-test.

[2] = system: ocular tissues of rabbits; experiment: In vivo distribution-metabolism in ocular tissues of rabbits; conditions: rabbit, in vivo
Procedure: Adult male New Zealand albino rabbits weighing 2.5-3.5 kg were used. Standard doses of 100 μl of 1% solution of the drugs in saline solution were administered topically to both eyes of each rabbit. After appropriate time intervals (30, 60 and 120 minutes), the animals were sacrificed. Aqueous humor was obtained by making a single puncture at the limbus using a 25 g×5/8" needle attached to 1 cm^3 syringe. Then the cornea and the iris-ciliary body were isolated. The tissues were pooled and homogenized using a Tekmar SDT tissuemizer in ice cold perchloric acid (0.05M) which contained 0.05% sodium metabisulfite as antioxidant. Samples were then rehomogenized in CH3 OH to prepare 10% homogenates, transferred to micro-filters and centrifuged for 20 minutes at 10000 r/minute to precipitate proteins. Aqueous humor was analyzed as such without any further dilution. Aliquots of 5-20 μl of the 10% tissue homogenate samples were analyzed by HPLC.

[3] = Table 3, 1% solution, time zero

Question: With `CC(C)NCC(O)COc1cccc2ccccc12` (stereo not drawn) [Propranolol HCl 1a, reference compound] as the molecule, how does the “% change after treatment (IOP)” value ([1]; 1% solution, 30 min.) read?
Answer: -9.10%

Question: What about the “IOP, treated” value ([1]; 1% solution, 30 min.) of the same molecule?
Answer: 28.0 ± 0.56 mm/Hg

Question: What about the “% change after treatment (IOP)” value ([1]; 1% solution, 60 min.) of the same molecule?
Answer: -10.39%

Question: And the “IOP, treated” value ([1]; 1% solution, 60 min.)?
Answer: 27.6 ± 0.62 mm/Hg

Question: What about the “% change after treatment (IOP)” value ([1]; 1% solution, 2 hrs.) of the same molecule?
Answer: -5.52%

Question: And the “IOP, treated” value ([1]; 1% solution, 2 hrs.)?
Answer: 29.1 ± 0.38 mm/Hg

Question: What about the “% change after treatment (IOP)” value ([1]; 1% solution, 3 hrs.) of the same molecule?
Answer: -11.04%

Question: What about the “IOP, treated” value ([1]; 1% solution, 3 hrs.) of the same molecule?
Answer: 27.4 ± 0.54 mm/Hg

Question: And the “% change after treatment (IOP)” value ([1]; 1% solution, 4 hrs.)?
Answer: -8.44%

Question: And the “IOP, treated” value ([1]; 1% solution, 4 hrs.)?
Answer: 28.2 ± 0.48 mm/Hg

Question: And the “% change after treatment (IOP)” value ([1]; 1% solution, 6 hrs.)?
Answer: -5.84%

Question: And the “IOP, treated” value ([1]; 1% solution, 6 hrs.)?
Answer: 29.0 ± 0.45 mm/Hg

Question: And the “% change after treatment (IOP)” value ([1]; 1% solution, 8 hrs.)?
Answer: -1.95%

Question: And the “IOP, treated” value ([1]; 1% solution, 8 hrs.)?
Answer: 30.2 ± 0.43 mm/Hg

Question: And the “% change after treatment (IOP)” value ([1]; 1% solution, time zero)?
Answer: 0.00%

Question: What about the “IOP, treated” value ([1]; 1% solution, time zero) of the same molecule?
Answer: 30.8 ± 0.40 mm/Hg

Question: What about the “% change after treatment (IOP)” value ([1]; 2.5% solution, 30 min.) of the same molecule?
Answer: +8.66%

Question: And the “IOP, treated” value ([1]; 2.5% solution, 30 min.)?
Answer: 27.6 ± 0.56 mm/Hg

Question: And the “% change after treatment (IOP)” value ([1]; 2.5% solution, 60 min.)?
Answer: +9.84%

Question: And the “IOP, treated” value ([1]; 2.5% solution, 60 min.)?
Answer: 27.9 ± 0.60 mm/Hg

Question: And the “% change after treatment (IOP)” value ([1]; 2.5% solution, 2 hrs.)?
Answer: +1.18%

Question: What about the “IOP, treated” value ([1]; 2.5% solution, 2 hrs.) of the same molecule?
Answer: 25.7 ± 0.55 mm/Hg

Question: And the “% change after treatment (IOP)” value ([1]; 2.5% solution, 3 hrs.)?
Answer: +1.18%

Question: And the “IOP, treated” value ([1]; 2.5% solution, 3 hrs.)?
Answer: 25.7 ± 0.39 mm/Hg

Question: What about the “% change after treatment (IOP)” value ([1]; 2.5% solution, 4 hrs.) of the same molecule?
Answer: +0.79%

Question: And the “IOP, treated” value ([1]; 2.5% solution, 4 hrs.)?
Answer: 25.6 ± 0.46 mm/Hg

Question: What about the “% change after treatment (IOP)” value ([1]; 2.5% solution, 6 hrs.) of the same molecule?
Answer: 0.00%

Question: What about the “IOP, treated” value ([1]; 2.5% solution, 6 hrs.) of the same molecule?
Answer: 25.4 ± 0.54 mm/Hg

Question: What about the “% change after treatment (IOP)” value ([1]; 2.5% solution, 8 hrs.) of the same molecule?
Answer: -0.79%

Question: What about the “IOP, treated” value ([1]; 2.5% solution, 8 hrs.) of the same molecule?
Answer: 25.2 ± 0.68 mm/Hg

Question: What about the “% change after treatment (IOP)” value ([1]; 2.5% solution, time zero) of the same molecule?
Answer: 0.00%

Question: What about the “IOP, treated” value ([1]; 2.5% solution, time zero) of the same molecule?
Answer: 25.4 ± 0.56 mm/Hg

Question: Which “% change after treatment (IOP)” value ([1]; Table 3, 1% solution, 30 min.) does the source give for `CC(C)(C)NCC(O)COc1nsnc1N1CCOCC1` (stereo not drawn) [Timolol maleate 1b, reference compound] here?
Answer: -10.93%

Question: What about the “IOP, drug-treated” value ([1]; Table 3, 1% solution, 30 min.) of the same molecule?
Answer: 26.00 ± 1.23 mm/Hg

Question: What about the “% change after treatment (IOP)” value ([1]; Table 3, 1% solution, 1 hr.) of the same molecule?
Answer: 6.65%

Question: And the “IOP, drug-treated” value ([1]; Table 3, 1% solution, 1 hr.)?
Answer: 27.25 ± 1.12 mm/Hg

Question: What about the “% change after treatment (IOP)” value ([1]; Table 3, 1% solution, 2 hr.) of the same molecule?
Answer: 6.78%

Question: And the “IOP, drug-treated” value ([1]; Table 3, 1% solution, 2 hr.)?
Answer: 27.21 ± 0.58 mm/Hg

Question: And the “% change after treatment (IOP)” value ([1]; Table 3, 1% solution, 3 hr.)?
Answer: 14.35%

Question: And the “IOP, drug-treated” value ([1]; Table 3, 1% solution, 3 hr.)?
Answer: 25.00 ± 0.87 mm/Hg

Question: And the “% change after treatment (IOP)” value ([1]; Table 3, 1% solution, 4 hr.)?
Answer: 14.77%

Question: What about the “IOP, drug-treated” value ([1]; Table 3, 1% solution, 4 hr.) of the same molecule?
Answer: 24.88 ± 1.00 mm/Hg

Question: What about the “% change after treatment (IOP)” value ([1]; Table 3, 1% solution, 5 hr.) of the same molecule?
Answer: 16.92%

Question: And the “IOP, drug-treated” value ([1]; Table 3, 1% solution, 5 hr.)?
Answer: 24.25 ± 1.18 mm/Hg

Question: And the “% change after treatment (IOP)” value ([1]; Table 3, 1% solution, 6 hr.)?
Answer: 12.37%

Question: What about the “IOP, drug-treated” value ([1]; Table 3, 1% solution, 6 hr.) of the same molecule?
Answer: 25.58 ± 0.85 mm/Hg

Question: What about the “% change after treatment (IOP)” value ([1]; Table 3, 1% solution, 8 hr.) of the same molecule?
Answer: 9.80%

Question: What about the “IOP, drug-treated” value ([1]; Table 3, 1% solution, 8 hr.) of the same molecule?
Answer: 26.33 ± 0.40 mm/Hg

Question: And the “% change after treatment (IOP)” value [1, 3]?
Answer: 0.00%

Question: What about the “IOP, drug-treated” value [1, 3] of the same molecule?
Answer: 29.19 ± 0.78 mm/Hg

Question: With `CC(C)(C)NCC(O)COc1cccc2c1CCC(=O)N2` (stereo not drawn) [carteolol] as the molecule, how does the “detection of parent β-adrenergic antagonist in eye compartments” value [2] read?
Answer: could not be found in any of the eye compartments
